# Structures can show the parent of a compound that is named as a salt.
# Legend:
# human STING (hSTING) = biological target: T1, human STING (hSTING) (Homo sapiens, UniProt Q86WV6); test: Inhibition test of intracellular human STING (hSTING) pathway using SEAP reporter cells (HEK-Blue ISG), stimulation with Compound 3; assay type: cell-based; set-up: hSTING inhibitory activity: scale not given here; conditions: Compound 3 10 nM stimulation, 21 hours
# T1 construct: host or cells: HEK-Blue ISG cells (HEK293-derived SEAP reporter line)
# T1 sequence (Q86WV6 whole entry H232R): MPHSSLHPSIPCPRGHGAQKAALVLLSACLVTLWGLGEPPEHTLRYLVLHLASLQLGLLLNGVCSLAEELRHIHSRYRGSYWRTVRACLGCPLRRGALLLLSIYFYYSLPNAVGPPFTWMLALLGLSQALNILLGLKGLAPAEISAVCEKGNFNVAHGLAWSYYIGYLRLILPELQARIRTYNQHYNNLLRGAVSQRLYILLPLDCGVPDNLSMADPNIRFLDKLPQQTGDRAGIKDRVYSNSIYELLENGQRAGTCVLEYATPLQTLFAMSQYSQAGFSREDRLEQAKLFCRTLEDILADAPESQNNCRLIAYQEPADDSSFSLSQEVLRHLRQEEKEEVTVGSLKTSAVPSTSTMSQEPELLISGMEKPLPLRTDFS
# Outline: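 HEK-Blue ISG cells with IRF-inducible SEAP reporter, pretreated 1 h with compound (final 0.1 to 10 μM), then stimulated with Compound 3 (final 10 nM) for 21 h at 37° C. Supernatant SEAP measured colorimetrically; IC50 from log-concentration regression, normalized to stimulated (100%) and unstimulated (0%) controls.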
# [1] = tested on: STING activation (IFN-β production in THP-1 cells); test: Human IFN-β production inhibition test by cGAMP stimulation in THP-1 cells; assay type: cell-based; set-up: IFN-β bioinhibitory activity: scale not given here; conditions: 2'3'-cGAMP transfection, 18 hours, IFN-β ELISA; for IC50: Homo sapiens, read-out: IFN-β bioinhibitory activity
# Protocol: Human IFN-β production inhibition test by cGAMP stimulation
# The inhibitory activity of test compounds against STING activation was evaluated by measuring the amount of IFN-β produced when human monocytic cell line THP-1 cells were stimulated with the endogenous ligand cGAMP.
# After seeding THP-1 cells (ATCC) in a 96-well plate, PMA (Santa Cruz Biotechnology) adjusted to a concentration of 100 nM after addition was added, and incubated at 37° C. in a 5% CO2 incubator. It was cultured overnight (RPMI1640 medium containing 10% FBS, 50 U/mL penicillin/50 μg/mL streptomycin). A test compound solution adjusted to a final concentration of 0.001 to 1 μM was added to each well of this plate and cultured for 1 hour in a CO2 incubator (DMSO final concentration 0.1%). 0.12 μg/well of 2′3′-cGAMP (Invivogen, #tlrl-nacga23) was introduced into the cells by transfection using Lipofectamine2000 (Invitrogen) and cultured in a CO incubator for an additional 18 hours. After collecting the culture supernatant from each well, the amount of human IFN-β produced in the culture supernatant was measured by ELISA using R&D human IFN-β Duoset (R&D Systems).
# Assuming that the human IFN-β production amount of the test compound-free and cGAMP-added group is 100%, and the human IFN-β production amount of the test compound-free and cGAMP-free group is 0%, the IC50 value was determined by regression analysis of the inhibitory rate determined from the amount of human IFN-β production at each compound concentration and the concentration of the test compound (logarithm).
Structure (SMILES),hSTING inhibitory activity (human STING (hSTING)),IC50 (human STING (hSTING); read-out: hSTING inhibitory activity) [µM],IC50 [1] [µM],IFN-β bioinhibitory activity [1]
"Brc1ccc2[nH]cc(Nc3nc4cc(-c5ccccc5)ccc4[nH]3)c2n1 [Embodiment 60, N-(5-bromo-1H-pyrrolo[3,2-b]pyridin-3-yl)-5-phenyl-1H-benzo [d]imidazol-2-amine]",* * *,1 to 10,0.1 to 1,–
"C=C(C)c1ccnc2c(Nc3nc4cc(Oc5ccccc5)ccc4[nH]3)c[nH]c12 [Embodiment 144, 5-phenoxy-N-[7-(prop-1-en-2-yl)-1H-pyrrolo[3,2-b]pyridin-3-yl]-1H-benzo[d]imidazole-2-amine]",* *,–,≥ 1,–
"Clc1ccc2[nH]c(Nc3c[nH]c4ccc(Br)cc34)nc2c1 [Example 4, N-(5-bromo-1H-indol-3-yl)-5-chloro-1H-benzo[d]imidazol-2-amine]",* * *,–,–,* *
"C#Cc1ccc2[nH]c(Nc3c[nH]c4ccc(Cl)nc34)nc2c1 [Embodiment 133, N-(5-Chloro-1H-pyrrolo[3,2-b]pyridin-3-yl)-5-ethynyl-1H-benzo[d] imidazol-2-amine formate]",* *,–,–,* * *
"Clc1ccc2[nH]cc(Nc3nc4cc(Oc5ccccc5)ccc4n3C3CC3)c2n1 [Embodiment 118, N-(5-Chloro-1H-pyrrolo[3,2-b]pyridin-3-yl)-1-cyclopropyl-5-phenoxy-1H-benzo[d]imidazol-2-amine]",* * *,–,0.1 to 1,–
"Cn1c(Nc2c[nH]c3ccc(Br)cc23)nc2ccccc21 [Example 18, N-(5-bromo-1H-indol-3-yl)-1-methyl-1H-benzo[d]imidazol-2-amine]",* *,–,≥ 1,–
"Cc1ccc2[nH]cc(Nc3nc4cc(C(F)(F)F)cc(F)c4n3C)c2c1 [Embodiment 256, 7-fluoro-1-methyl-N-(5-methyl-1H-indol-3-yl)-5-(trifluoromethyl)-1H-benzo[d]imidazol-2-amine]",* * *,–,–,* *
"CC(C)c1ccc2[nH]c(Nc3c[nH]c4ccc(Cl)nc34)nc2c1 [Embodiment 104, N-(5-Chloro-1H-pyrrolo[3,2-b]pyridin-3-yl)-5-isopropyl-1H-benzo[d]imidazol-2-amine]",* *,–,–,* *
"N#Cc1ccc2[nH]cc(Nc3nc4cc(Oc5ccccc5)ccc4[nH]3)c2n1 [Embodiment 130, 3-[(5-phenoxy-1H-benzo[d]imidazol-2-yl)amino]-1H-pyrrolo[3,2-b] pyridine-5-carbonitrile]",* *,–,≥ 1,–
"Cc1cc(C)c2nc(Nc3c[nH]c4ccc(Cl)nc34)[nH]c2c1 [Embodiment 87, N-(5-Chloro-1H-pyrrolo[3,2-b]pyridin-3-yl)-4,6-dimethyl-1H-benzo[d]imidazol-2-amine]",* *,–,0.1 to 1,–
"FC(F)(F)c1cccc2[nH]c(Nc3c[nH]c4ccc(Br)nc34)nc12 [Embodiment 89, N-(5-bromo-1H-pyrrolo[3,2-b]pyridin-3-yl)-4-(trifluoromethyl)-1H-benzo[d]imidazol-2-amine]",* * *,–,0.1 to 1,–
"Clc1ccc2[nH]cc(Nc3nc4cc(C5CCOCC5)ccc4[nH]3)c2n1 [Embodiment 112, N-(5-chloro-1H-pyrrolo[3,2-b]pyridin-3-yl)-5-(tetrahydro-2H-pyran-4-yl)-1H-benzo[d]imidazole-2-amine]",* *,–,0.1 to 1,–
"CCO/C=C/c1ccc2[nH]c(Nc3c[nH]c4ccc(Cl)nc34)nc2c1 [Embodiment 114, (E)-N-(5-chloro-1H-pyrrolo[3,2-b]pyridin-3-yl)-5-(2-ethoxyvinyl)-1H-benzo[d]imidazol-2-amine]",* * *,–,≥ 1,–
"Clc1ccc2[nH]cc(Nc3nc4c(Cl)c(Cl)ccc4[nH]3)c2n1 [Embodiment 94, 4,5-dichloro-N-(5-chloro-1H-pyrrolo[3,2-b]pyridin-3-yl)-1H-benzo[d]imidazol-2-amine]",* * *,–,0.1 to 1,–
"Cn1c(Nc2c[nH]c3ccc(Cl)nc23)nc2ccc(Oc3ccc(F)cc3)cc21 [Embodiment 58, N-(5-chloro-1H-pyrrolo[3,2-b]pyridin-3-yl)-6-(4-fluorophenoxy)-1-methyl-1H-benzo[d]imidazol-2-amine]",* *,–,0.1 to 1,–
"CCc1ccc2[nH]cc(Nc3nc4cc(Oc5ccccc5)ccc4[nH]3)c2n1 [Embodiment 103, N-(5-ethyl-1H-pyrrolo[3,2-b]pyridin-3-yl)-5-phenoxy-1H-benzo [d]imidazol-2-amine]",* *,–,0.1 to 1,–
"Fc1cc2nc(Nc3c[nH]c4ccc(Cl)nc34)[nH]c2cc1F [Embodiment 78, N-(5-Chloro-1H-pyrrolo[3,2-b]pyridin-3-yl)-5,6-difluoro-1H-benzo[d]imidazol-2-amine]",* *,–,≥ 1,–
"Fc1cc2[nH]c(Nc3c[nH]c4ccc(Cl)nc34)nc2cc1Oc1ccccc1 [Embodiment 193, N-(5-Chloro-1H-pyrrolo[3,2-b]pyridin-3-yl)-6-fluoro-5-phenoxy-1H-benzo[d]imidazol-2-amine]",* *,–,–,–
"CC=C(Cl)c1ccc2[nH]c(Nc3c[nH]c4ccc(Cl)nc34)nc2c1 [Embodiment 137, N-(5-Chloro-1H-pyrrolo[3,2-b]pyridin-3-yl)-5-(1-chloroprop-1-en-1-yl)-1H-benzo[d]imidazole-2-amine]",* * *,–,–,–
"Cc1ccc2[nH]cc(Nc3nc4cc(C(F)(F)F)cc(F)c4n3N(C)C)c2c1 [Embodiment 280, 7-fluoro-N1,N1-dimethyl-N2-(5-methyl-1H-indol-3-yl)-5-(trifluoromethyl)-1H-benzo[d]imidazole-1,2-diamine]",* * *,–,–,–

# Now from value to compound, other results behind:
hSTING inhibitory activity (human STING (hSTING)),IC50 (human STING (hSTING); read-out: hSTING inhibitory activity) [µM],IC50 [1] [µM],Structure (SMILES),IFN-β bioinhibitory activity [1]
* *,–,0.1 to 1,"Fc1ccc2c(c1)nc(Nc1c[nH]c3ccc(Cl)cc13)n2C1CC1 [Embodiment 189, N-(5-Chloro-1H-indol-3-yl)-1-cyclopropyl-5-fluoro-1H-benzo[d] imidazol-2-amine]",–
* * *,–,–,"Nn1c(Nc2c[nH]c3ccc(Cl)cc23)nc2cc(C(F)(F)F)cc(F)c21 [Embodiment 269, N2-(5-Chloro-1H-indol-3-yl)-7-fluoro-5-(trifluoromethyl)-1H-benzo[d]imidazole-1,2-diamine]",* *
* * *,–,0.1 to 1,"Cn1c(Nc2c[nH]c3ccc(Cl)cc23)nc2cc(C(F)(F)F)cc(C#N)c21 [Embodiment 264, 2-[(5-Chloro-1H-indol-3-yl)amino]-1-methyl-5-(trifluoromethyl)-1H-benzo[d]imidazole-7-carbonitrile]",–
* *,–,0.1 to 1,"N#CCCn1c(Nc2c[nH]c3ccc(Cl)cc23)nc2cc(C(F)(F)F)ccc21 [Embodiment 259, 3-{2-[(5-chloro-1H-indol-3-yl)amino]-5-(trifluoromethyl)-1H-benzo [d]imidazol-1-yl]propanenitrile]",–
* * *,–,–,"CC(C)n1c(Nc2c[nH]c3ccc(Cl)cc23)nc2cc(C(F)(F)F)ccc21 [Embodiment 218, N-(5-Chloro-1H-indol-3-yl)-1-isopropyl-5-(trifluoromethyl)-1H-benzo[d]imidazol-2-amine]",* *
* * *,–,–,"CCCn1c(Nc2c[nH]c3ccc(Cl)cc23)nc2cc(OC(F)(F)F)ccc21 [Embodiment 244, N-(5-Chloro-1H-indol-3-yl)-1-propyl-5-(trifluoromethoxy)-1H-benzo [d]imidazol-2-amine]",* *
* *,–,0.1 to 1,"OCCn1c(Nc2c[nH]c3ccc(Cl)cc23)nc2cc(OC(F)(F)F)ccc21 [Embodiment 245, 2-{2-[(5-Chloro-1H-indol-3-yl)amino]-5-(trifluoromethoxy)-1H-benzo[d]imidazol-1-yl}ethan-1-oar]",–
* *,–,0.1 to 1,"FC(F)(F)c1ccc2c(c1)nc(Nc1c[nH]c3ccc(Cl)cc13)n2N1CCCC1 [Embodiment 247, N-(5-Chloro-1H-indol-3-yl)-1-(pyrrolidin-1-yl)-5-(trifluoromethyl)-1H-benzo[d]imidazol-2-amine]",–
* * *,–,–,"CCCn1c(Nc2c[nH]c3ccc(Cl)cc23)nc2cc(C(F)(F)F)ccc21 [Embodiment 212, N-(5-Chloro-1H-indol-3-yl)-1-propyl-5-(trifluoromethyl)-1H-benzo[d]imidazo-2-amine]",* * *
